The values below are quoted from earlier work in US12551486B2, “Rivaroxaban formulation” (Shanghai Auson Pharmaceuticals Co., Ltd., priority 2021, dated 2026).

For the molecule `O=C(NC[C@H]1CN(c2ccc(N3CCOCC3=O)cc2)C(=O)O1)c1ccc(Cl)s1` [Rivaroxaban, 5-chloro-N-[[(5S)-2-oxo-3-[4-(3-oxomorpholin-4-yl)phenyl]-1,3-oxazolidin-5-yl]methyl]thiophene-2-carboxamide], the Solubility in water result was “insoluble in water”.
